Test system: subjects with moderate-to-severe plaque psoriasis
Experiment: Treatment disposition, Example 2
Assay type: in vivo, human
[1] = 25 mg BID, Week 16 to Week 52, N=40
[2] = 25 mg BID, through Week 52, N=41
[3] = 25 mg QD, Week 16 to Week 52, N=35
[4] = 25 mg QD, through Week 52, N=43
[5] = 50 mg QD, through Week 52, N=43
[6] = 100 mg BID, through Week 52, N=42
[7] = 100 mg QD, Week 16 to Week 52, N=40
[8] = 100 mg QD, through Week 52, N=43
[9] = Combined, Week 16 to Week 52, N=227
[10] = Combined, through Week 52, N=247

CC(=O)NCCCC[C@@H]1NC(=O)[C@H](Cc2c[nH]c3c(C)cccc23)NC(=O)[C@H]([C@@H](C)O)NC(=O)[C@H](CC(N)=O)NC(=O)[C@@H](NC(C)=O)C(C)(C)SSC(C)(C)[C@@H](C(=O)N[C@@H](Cc2ccc(OCCN)cc2)C(=O)N[C@@H](Cc2ccc3ccccc3c2)C(=O)NC2(C(=O)N[C@@H](CCC(=O)O)C(=O)N[C@@H](CC(N)=O)C(=O)N[C@@H](Cc3cccnc3)C(=O)N(C)CC(N)=O)CCOCC2)NC1=O [IL-23 receptor antagonist peptide, Ac-[Pen]*-N-T-[W(7-Me)]-[Lys(Ac)]-[Pen]*-Phe[4-(2-aminoethoxy)]-[2-Nal]-[THP]-E-N-[3-Pal]-Sarc-NH2 (*[Pen]-[Pen]* formdisulfidebond)]
Discontinued: Adverse Event, % [1]: (2.5%)
Discontinued: Other Adverse Event, % [1]: (2.5%)
Discontinued: Adverse Event, % [2]: (2.4%)
Discontinued: Other Adverse Event, % [2]: (2.4%)
Discontinued: Adverse Event, % [3]: (2.9%)
Discontinued: Other Adverse Event, % [3]: (2.9%)
Discontinued: Adverse Event, % [4]: (7.0%)
Discontinued: Other Adverse Event, % [4]: (7.0%)
Discontinued: Adverse Event, % [5]: (4.7%)
Discontinued: Other Adverse Event, % [5]: (4.7%)
Discontinued: Adverse Event, % [6]: (2.4%)
Discontinued: Other Adverse Event, % [6]: (2.4%)
Discontinued: Adverse Event, % [7]: (2.5%)
Discontinued: Other Adverse Event, % [7]: (2.5%)
Discontinued: Adverse Event, % [8]: (4.7%)
Discontinued: Other Adverse Event, % [8]: (4.7%)
Discontinued: Adverse Event, % [9]: (1.3%)
Discontinued: Other Adverse Event, % [9]: (1.3%)
Discontinued: Adverse Event, % [10]: (3.6%)
Discontinued: Other Adverse Event, % [10]: (3.6%)

— patent US20260232767A1, “INTERLEUKIN-23 RECEPTOR ANTAGONIST PEPTIDES FOR USE IN THE TREATMENT OF PSORIASIS” (Janssen Pharmaceutica NV, priority 2023, published 2026)
